Results reported in the NIST ThermoML archive (doi:10.1016/j.jct.2017.02.023).
± gives the expanded uncertainty stated by the source.

Key:
[1] = 81.5 kPa, Liquid, Vibrating tube method
[2] = refractive index (Na D-line) (dimensionless); details: 81.5 kPa, Liquid, Standard Abbe refractometry
[3] = xn = mol fraction of the nth substance listed; details: 81.5 kPa, Liquid, Vibrating tube method, x1 = 1
[4] = refractive index (Na D-line) (dimensionless); xn = mol fraction of the nth substance listed; details: 81.5 kPa, Liquid, Standard Abbe refractometry, x1 = 1

| Structure (SMILES) | mass density ([1]; 298.15 K) | mass density ([1]; 308.15 K) | mass density ([1]; 318.15 K) | mass density ([1]; 328.15 K) | refractive index ([2]; 298.15 K) | refractive index ([2]; 308.15 K) | refractive index ([2]; 318.15 K) | refractive index ([2]; 328.15 K) | mass density ([3]; 298.15 K) | mass density ([3]; 308.15 K) | mass density ([3]; 318.15 K) | mass density ([3]; 328.15 K) | refractive index ([4]; 298.15 K) | refractive index ([4]; 308.15 K) | refractive index ([4]; 318.15 K) | refractive index ([4]; 328.15 K) |
| --- | --- | --- | --- | --- | --- | --- | --- | --- | --- | --- | --- | --- | --- | --- | --- | --- |
| CCCCCC(C)O (centres undefined) [2-heptanol] | 813.36 ± 1.6 kg/m3 | 805.72 ± 1.6 kg/m3 | 797.65 ± 1.6 kg/m3 | 789.38 ± 1.6 kg/m3 | 1.41924 ± 0.0016 | 1.41505 ± 0.0016 | 1.41076 ± 0.0016 | 1.40647 ± 0.0016 |  |  |  |  |  |  |  |  |
| CCCCCC(C)O (centres undefined) [2-heptanol] + CNC1CCCCC1 |  |  |  |  |  |  |  |  | 813.36 ± 1.6 kg/m3 | 805.72 ± 1.6 kg/m3 | 797.65 ± 1.6 kg/m3 | 789.38 ± 1.6 kg/m3 | 1.41924 ± 0.0016 | 1.41505 ± 0.0016 | 1.41076 ± 0.0016 | 1.40647 ± 0.0016 |
| CCCCC(C)O (centres undefined) [2-hexanol] | 810.17 ± 1.6 kg/m3 | 801.94 ± 1.6 kg/m3 | 793.57 ± 1.6 kg/m3 | 784.6 ± 1.6 kg/m3 | 1.41296 ± 0.0016 | 1.40853 ± 0.0016 | 1.40413 ± 0.0016 | 1.3996 ± 0.0016 |  |  |  |  |  |  |  |  |
| CCCCC(C)O (centres undefined) [2-hexanol] + CNC1CCCCC1 |  |  |  |  |  |  |  |  | 810.17 ± 1.6 kg/m3 | 801.94 ± 1.6 kg/m3 | 793.57 ± 1.6 kg/m3 | 784.6 ± 1.6 kg/m3 | 1.41296 ± 0.0016 | 1.40853 ± 0.0016 | 1.40413 ± 0.0016 | 1.3996 ± 0.0016 |
| CCCCCCC(C)O (centres undefined) [2-octanol] | 817.05 ± 1.6 kg/m3 | 809.43 ± 1.6 kg/m3 | 801.32 ± 1.6 kg/m3 | 793.06 ± 1.6 kg/m3 | 1.42483 ± 0.0016 | 1.42073 ± 0.0016 | 1.41648 ± 0.0016 | 1.41224 ± 0.0016 |  |  |  |  |  |  |  |  |
| CCCCCCC(C)O (centres undefined) [2-octanol] + CNC1CCCCC1 |  |  |  |  |  |  |  |  | 817.05 ± 1.6 kg/m3 | 809.43 ± 1.6 kg/m3 | 801.32 ± 1.6 kg/m3 | 793.06 ± 1.6 kg/m3 | 1.42483 ± 0.0016 | 1.42073 ± 0.0016 | 1.41648 ± 0.0016 | 1.41224 ± 0.0016 |
| CNC1CCCCC1 [N-methylcyclohexylamine] | 865.2 ± 1.6 kg/m3 | 856.57 ± 1.6 kg/m3 | 847.67 ± 1.6 kg/m3 | 838.68 ± 1.6 kg/m3 | 1.45306 ± 0.0016 | 1.44812 ± 0.0016 | 1.4431 ± 0.0016 | 1.43809 ± 0.0016 |  |  |  |  |  |  |  |  |
| CCC(C)O (centres undefined) [butan-2-ol] | 802.71 ± 1.6 kg/m3 | 794.2 ± 1.6 kg/m3 | 785.32 ± 1.6 kg/m3 | 775.52 ± 1.6 kg/m3 | 1.39544 ± 0.0016 | 1.39105 ± 0.0016 | 1.38646 ± 0.0016 | 1.38175 ± 0.0016 |  |  |  |  |  |  |  |  |
| CCC(C)O (centres undefined) [butan-2-ol] + CNC1CCCCC1 |  |  |  |  |  |  |  |  | 802.71 ± 1.6 kg/m3 | 794.2 ± 1.6 kg/m3 | 785.32 ± 1.6 kg/m3 | 775.52 ± 1.6 kg/m3 | 1.39544 ± 0.0016 | 1.39105 ± 0.0016 | 1.38646 ± 0.0016 | 1.38175 ± 0.0016 |
| CCCC(C)O (centres undefined) [pentan-2-ol] | 805.37 ± 1.6 kg/m3 | 796.95 ± 1.6 kg/m3 | 788.38 ± 1.6 kg/m3 | 779.17 ± 1.6 kg/m3 | 1.4045 ± 0.0016 | 1.40029 ± 0.0016 | 1.39586 ± 0.0016 | 1.39126 ± 0.0016 |  |  |  |  |  |  |  |  |
| CCCC(C)O (centres undefined) [pentan-2-ol] + CNC1CCCCC1 |  |  |  |  |  |  |  |  | 805.37 ± 1.6 kg/m3 | 796.95 ± 1.6 kg/m3 | 788.38 ± 1.6 kg/m3 | 779.17 ± 1.6 kg/m3 | 1.4045 ± 0.0016 | 1.40029 ± 0.0016 | 1.39586 ± 0.0016 | 1.39126 ± 0.0016 |
| CC(C)O [propan-2-ol] | 781.05 ± 1.6 kg/m3 | 772.41 ± 1.6 kg/m3 | 763.41 ± 1.6 kg/m3 | 753.12 ± 1.6 kg/m3 | 1.37511 ± 0.0016 | 1.37097 ± 0.0016 | 1.36665 ± 0.0016 | 1.36181 ± 0.0016 |  |  |  |  |  |  |  |  |
| CC(C)O [propan-2-ol] + CNC1CCCCC1 |  |  |  |  |  |  |  |  | 781.05 ± 1.6 kg/m3 | 772.41 ± 1.6 kg/m3 | 763.41 ± 1.6 kg/m3 | 753.12 ± 1.6 kg/m3 | 1.37511 ± 0.0016 | 1.37097 ± 0.0016 | 1.36665 ± 0.0016 | 1.36181 ± 0.0016 |
